Laboratory results as given in patent US12258424B2, “Polypeptides and compositions comprising the same” (priority 2020, dated 2025).
Residues, ends and D or L forms follow the SMILES beside them.

How the values were obtained:
[1] = target: human PD-L1/CD80 interaction (Homo sapiens, UniProt Q9NZQ7); assay: Blockade of the CD80/PD-L1 interaction; assay type: binding; settings: at 10 μM, FIG. 8a
[2] = target: T1, hPD-L1 (Homo sapiens, UniProt Q9NZQ7); assay: Blockade of the PD-1/PD-L1 interaction, plate coated with human PD-L1 protein; assay type: binding; parameters: PD-L1 protein (G&P Biosciences, human PD-L1 ECD, cat #FCL0784B); purchased G&P Biosciences FCL0784B (PD-L1); settings: human PD-L1 protein
Experimental: (§1) Ninety-six-well plates were coated with 100 ng of PD-L1 protein (G&P Biosciences, human PD-L1 ECD, cat #FCL0784B. mouse PD-L1, cat #FCL3502B) and later blocked with 2% BSA for 2 hours at room temperature. Various concentrations of peptides were loaded into the wells and incubated for 1 hour at room temperature. […] Streptavidin-HRP (R & D systems) and chromogenic substrate were added into the wells. OD450 was then recorded and referenced to OD540.

[3] = test system: 4T1 cancer cell; assay type: cell-based, mouse
[4] = test system: DU145 cancer cell; assay type: cell-based, human
Experimental: as §1
The blocking efficiency of the anti-PD-L1 peptides at 10 μM (FIG. 2c). […] The IC50 of each peptide was also determined using recombinant human PD-L1 protein and DU-145 cancer cells.

[5] = target: mPD-L1 (Mus musculus, UniProt Q9EP73); assay: Blockade of the mouse PD-1/PD-L1 interaction, mouse PD-L1 protein; assay type: binding; parameters: purchased G&P Biosciences FCL3502B (PD-L1); settings: mouse PD-L1 protein
Experimental: as §1

[6] = target: T2, recombinant human PD-L1 ECD protein (Homo sapiens, UniProt Q9NZQ7); assay: SPR binding kinetics and affinity to immobilized human PD-L1; settings: read-out: Ka
T2 construct: against the recombinant human PD-L1 ECD protein were evaluated using SPR; purchased G&P Biosciences FCL0784B
Experimental: In such aspects, the equilibrium dissociate constant KD value against recombinant human PD-L1 can be determined according to an KD to PD-L1 SPR Assay. The KD to PD-L1 SPR Assay can include the use of Surface Plasmon Resonance (SPR), such as the B14500, Biosensing Instrument, and can include the following procedures. The PD-L1 protein can be diluted to 10 μg/mL with sodium acetate buffer (pH 5.0, GE Healthcare, PA) and covalently coated onto a CM5 sensor chip (CM Dextran Sensor Chip, Biosensing Instrument) using the standard Amine Coupling Kit (GE Healthcare, PA). Approximately 6500 RU of PD-L1 protein are immobilized onto the chip. A second channel is used as a reference. HBS-EP+ buffer (GE Healthcare) can be employed at a flow rate of 60 μL/min. A series of concentrations of each peptide (15, 30, 60, 125, 250, 500, 1000, 5000 and 10,000 nM) is prepared in HBS-EP+ running buffer to obtain the equilibrium dissociation constant (KD) values of the peptides. The CM5 sensor chip can be regenerated with 10 mM NaOH for 20 s. The results can be analyzed using the software of Bi data analysis software.
Evaluation of Binding Kinetics and Affinity By Surface Plasmon Resonance (SPR). Binding affinities of the PD-L1 specific peptides for human PD-L1 protein were determined by SPR (B14500, Biosensing Instrument). PD-L1 protein was diluted to 10 μg/mL with sodium acetate buffer (pH 5.0, GE Healthcare, PA) and covalently coated onto a CM5 sensor chip (CM Dextran Sensor Chip, Biosensing Instrument) using the standard Amine Coupling Kit (GE Healthcare, PA). Approximately 6500 RU of PD-L1 protein were immobilized onto the chip. A second channel was used as a reference. HBS-EP+ buffer (GE Healthcare) was employed at a flow rate of 60 μL/min. A series of concentrations of each peptide (15, 30, 60, 125, 250, 500, 1000, 5000 and 10,000 nM) were prepared in HBS-EP+ running buffer to obtain the equilibrium dissociation constant (KD) values of the peptides. The CM5 sensor chip was regenerated with 10 mM NaOH for 20 seconds. The results were analyzed using the software of Bi data analysis software. Binding affinities of the anti-PD-L1 peptides to BSA was also assessed following the procedure for human PD-L1.

[7] = target: PD1/PD-L1 (Homo sapiens, UniProt Q9NZQ7); assay: IC50 and blocking efficiency against PD1/PD-L1 (Table 5); assay type: binding
Experimental: (§2) Blocking efficiency at 10 μM/IC50 against human and mouse PD1/PD-L1 (ELISA). […] 100 ng of recombinant human PD-L1 protein was coated in 96-well plates at 4° C. for 16 h with shaking over an orbital shaker. Unbound protein was removed by washing twice with PBS (pH 7.2-7.4), 2% BSA was added for 1.5 h at 37° C. to block the plate. Specific concentrations of the peptides were dispensed into the appropriate wells and incubated for 2 h at 37° C. […] This was followed by the addition of streptavidin-HRP and chromogenic substrate (R & D systems). The color reaction was terminated with 2N H2SO4, absorbance was recorded at OD450 and referenced to OD540.

[8] = target: T1, hPD-L1; assay: PD-1/PD-L1 inhibitor screening ELISA, human proteins; assay type: binding; parameters: purchased Acro Biosystems EP-101
Experimental: as §2

[9] = Proteolytic stability in 50% human serum (LC-MS); assay type: in vitro ADME
Experimental: Half-life in 50% human serum. Proteolytic stability of the peptides was investigated using LC-MS. Solutions of the anti-PD-L1 peptides were incubated with 50% human serum at […], aliquots were taken at specific time points for processing and subsequent LC-MS analysis.

mPD-L1, sequence (Q9EP73 19-239 limits assumed): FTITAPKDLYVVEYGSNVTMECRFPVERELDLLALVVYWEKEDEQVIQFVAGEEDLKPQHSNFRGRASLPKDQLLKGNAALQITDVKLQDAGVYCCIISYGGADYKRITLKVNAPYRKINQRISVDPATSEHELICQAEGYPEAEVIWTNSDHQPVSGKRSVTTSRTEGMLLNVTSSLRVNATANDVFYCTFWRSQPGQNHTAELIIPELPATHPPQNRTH
T1 sequence (Q9NZQ7 19-238 limits assumed): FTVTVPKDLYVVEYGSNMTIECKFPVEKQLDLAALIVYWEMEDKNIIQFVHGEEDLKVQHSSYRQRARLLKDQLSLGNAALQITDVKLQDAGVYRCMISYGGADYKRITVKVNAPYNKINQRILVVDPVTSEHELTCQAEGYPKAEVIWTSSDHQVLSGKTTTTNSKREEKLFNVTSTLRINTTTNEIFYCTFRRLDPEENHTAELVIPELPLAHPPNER
T2 sequence (Q9NZQ7 19-238 limits assumed): as above
human PD-L1/CD80 interaction, sequence (Q9NZQ7 19-238 limits assumed): as above
PD1/PD-L1, sequence (Q9NZQ7 19-238 limits assumed): as above

| Compound | Blocking efficiency against CD80/PD-L1 interaction [1] [%] | Blocking Efficiency (%) [2] [%] | Blocking Efficiency (%) ([3]; 4T1 cancer cell) | IC50 ([3]; 2 h) [nM] | IC50 ([4]; 2 h) [nM] | Blocking Efficiency (%) ([4]; DU-145 cancer cells) | Blocking Efficiency (%) [5] [%] | IC50 [5] [nM] | kon [6] [M⁻¹ s⁻¹] | % Blocking efficiency at 10 μM [7] [%] | % Blocking efficiency at 10 μM (ELISA) hPD-L1 [8] [%] | half-life [9] [min] |
| --- | --- | --- | --- | --- | --- | --- | --- | --- | --- | --- | --- | --- |
| CC(C)C[C@H](NC(=O)[C@@H](NC(=O)[C@@H]1CCCN1C(=O)[C@H](CC(C)C)NC(=O)[C@H](CO)NC(=O)[C@@H]1CCCN1C(=O)[C@H](CC(=O)O)NC(=O)[C@H](Cc1c[nH]cn1)NC(=O)[C@H](Cc1ccc(O)cc1)NC(=O)[C@@H](N)CC(=O)O)[C@@H](C)O)C(=O)N[C@@H](CCCNC(=N)N)C(=O)N[C@@H](CCCCN)C(=O)O [CLP004] (H-DYHDPSLPTLRK-OH; N-terminus and C-terminus assumed) | ~27 | 52 | 34 | 730 | 200 | 60 | 48 | 1910 | 5140 | – | – | – |
| C[C@@H](O)[C@H](NC(=O)[C@H](Cc1ccc(O)cc1)NC(=O)[C@H](Cc1ccc(O)cc1)NC(=O)[C@H](CO)NC(=O)[C@H](CCCNC(=N)N)NC(=O)[C@H](Cc1c[nH]cn1)NC(=O)[C@@H](N)Cc1c[nH]c2ccccc12)C(=O)N[C@@H](Cc1c[nH]c2ccccc12)C(=O)N[C@@H](CC(N)=O)C(=O)O [CLP2TR3] (H-WHRSYYTWN-OH; N-terminus and C-terminus assumed) | – | – | – | – | – | – | – | – | – | 80 | 80 | 15 |
